Measured values from patent US20260022142A1, “MACROCYCLIC IMMUNOMODULATORS” (Bristol-Myers Squibb Company, priority 2022, published 2026).
Bridge positions count the residues as written; N and C are the ends. Square brackets hold non-standard residues; d marks the D form. Peptide text beside a SMILES is read from it. * marks the point of attachment. Phe(4-COOH) = N[C@@H](Cc1ccc(C(=O)O)cc1)C(=O)O; Bip = N[C@@H](Cc1ccc(-c2ccccc2)cc1)C(=O)O; Phe(3-Me) = Cc1cccc(C[C@H](N)C(=O)O)c1; Phe(4-F) = N[C@@H](Cc1ccc(F)cc1)C(=O)O; Val(3-OH) = CC(C)(O)[C@H](N)C(=O)O; 4Pal = N[C@@H](Cc1ccncc1)C(=O)O; Cha = N[C@@H](CC1CCCCC1)C(=O)O; Carboxymethyl = O=C(O)C*; Orn = NCCC[C@H](N)C(=O)O; Aun = NCCCCCCCCCCC(=O)O; Dab = NCC[C@H](N)C(=O)O; AEEA = NCCOCCOCC(=O)O

Target: T1, PD-1/PD-L1 interaction (PE-labeled human PD-L1-Ig binding to Jurkat cell line over-expressing human PD-1) (Homo sapiens, UniProt Q15116)
T1 construct: expressed in transfected cells; host or cells: Jurkat
Experiment: Jurkat-PD-1 Cell Binding High-Content Screening Assay (CBA)
Type: cell-based
Settings: Jurkat cell line over-expressing human PD-1; PE-labeled PD-L1-Ig 20 nM final; read-out: Jurkat hPD1-PDL1 IC50
Outline: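 Human PD-L1-Ig carrying a covalent PE label on its Ig tag serves as the probe, applied at 20 nM final to compound-treated (2 h, 37° C) Jurkat-hPD-1 cells in medium with 10% fetal calf serum. After one hour, fixation and nuclear staining precede high-content image analysis.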

T1 sequence (Q15116 25-288): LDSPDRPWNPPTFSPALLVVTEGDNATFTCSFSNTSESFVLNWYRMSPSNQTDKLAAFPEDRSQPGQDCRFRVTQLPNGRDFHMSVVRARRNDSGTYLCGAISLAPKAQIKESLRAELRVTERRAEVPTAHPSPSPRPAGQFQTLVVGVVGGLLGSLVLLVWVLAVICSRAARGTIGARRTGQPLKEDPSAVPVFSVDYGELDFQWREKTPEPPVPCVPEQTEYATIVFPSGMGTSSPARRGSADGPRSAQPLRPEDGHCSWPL

IC50	Structure (SMILES)
16.9 nM	Cc1cccc(C[C@@H]2NC(=O)[C@H](CC(=O)O)NC(=O)[C@H](Cc3ccc(OCC(=O)O)cc3)NC(=O)[C@H](CCN)NC(=O)CSC[C@@H](C(=O)N[C@@H](CCN)C(=O)NCCCCCCCCCCC(=O)O)NC(=O)[C@H](CO)NC(=O)[C@H](C(C)(C)O)NC(=O)[C@H](CC3CCCCC3)NC(=O)[C@H](Cc3cnc[nH]3)NC(=O)[C@@H](CC(C)C)NC(=O)[C@H](CCCN)NC(=O)[C@H](Cc3ccc(OCC(=O)O)cc3)NC(=O)[C@H](Cc3ccc(-c4ccccc4)cc3)NC(=O)[C@H](Cc3ccc(F)cc3)NC2=O)c1 [Compound 3731] ({CH2CO}-[Dab]Y(Carboxymethyl)D[Phe(3-Me)][Phe(4-F)][Bip]Y(Carboxymethyl)[Orn][dL]H[Cha][Val(3-OH)]SC[Dab][Aun]-OH; thioether N-14)
56.2 nM	Cc1cccc(C[C@@H]2NC(=O)[C@H](CC(=O)O)NC(=O)[C@H](Cc3ccc(F)cc3)NC(=O)[C@H](CCN)NC(=O)CSC[C@@H](C(=O)N[C@@H](CCN)C(=O)NCCCCCCCCCCC(=O)O)NC(=O)[C@H](CO)NC(=O)[C@H](C(C)(C)O)NC(=O)[C@H](CC3CCCCC3)NC(=O)[C@H](Cc3cnc[nH]3)NC(=O)[C@@H](CC(C)C)NC(=O)[C@H](CCCN)NC(=O)[C@H](Cc3ccc(OCC(=O)O)cc3)NC(=O)[C@H](Cc3ccc(-c4ccccc4)cc3)NC(=O)[C@H](Cc3ccc(OCC(=O)O)cc3)NC2=O)c1 [Compound 3732] ({CH2CO}-[Dab][Phe(4-F)]D[Phe(3-Me)]Y(Carboxymethyl)[Bip]Y(Carboxymethyl)[Orn][dL]H[Cha][Val(3-OH)]SC[Dab][Aun]-OH; thioether N-14)
115 nM	Cc1cccc(C[C@@H]2NC(=O)[C@H](CC(=O)O)NC(=O)[C@H](Cc3ccc(OCC(=O)O)cc3)NC(=O)[C@H](Cc3ccncc3)NC(=O)CSC[C@@H](C(=O)N[C@@H](CCN)C(=O)NCCCCCCCCCCC(=O)O)NC(=O)[C@H](CO)NC(=O)[C@H](C(C)(C)O)NC(=O)[C@H](CC3CCCCC3)NC(=O)[C@H](Cc3c[nH]cn3)NC(=O)[C@@H](CC(C)C)NC(=O)[C@H](CCCN)NC(=O)[C@H](Cc3ccc(OCC(=O)O)cc3)NC(=O)[C@H](Cc3ccc(-c4ccccc4)cc3)NC(=O)[C@H](Cc3ccc(F)cc3)NC2=O)c1 [Compound 3733] ({CH2CO}-[4Pal]Y(Carboxymethyl)D[Phe(3-Me)][Phe(4-F)][Bip]Y(Carboxymethyl)[Orn][dL]H[Cha][Val(3-OH)]SC[Dab][Aun]-OH; thioether N-14)
128 nM	Cc1cccc(C[C@@H]2NC(=O)[C@H](CC(=O)O)NC(=O)[C@H](Cc3ccc(F)cc3)NC(=O)[C@H](Cc3ccncc3)NC(=O)CSC[C@@H](C(=O)N[C@@H](CCN)C(=O)NCCCCCCCCCCC(=O)O)NC(=O)[C@H](CO)NC(=O)[C@H](C(C)(C)O)NC(=O)[C@H](CC3CCCCC3)NC(=O)[C@H](Cc3c[nH]cn3)NC(=O)[C@@H](CC(C)C)NC(=O)[C@H](CCCN)NC(=O)[C@H](Cc3ccc(OCC(=O)O)cc3)NC(=O)[C@H](Cc3ccc(-c4ccccc4)cc3)NC(=O)[C@H](Cc3ccc(OCC(=O)O)cc3)NC2=O)c1 [Compound 3734] ({CH2CO}-[4Pal][Phe(4-F)]D[Phe(3-Me)]Y(Carboxymethyl)[Bip]Y(Carboxymethyl)[Orn][dL]H[Cha][Val(3-OH)]SC[Dab][Aun]-OH; thioether N-14)
20.6 nM	Cc1cccc(C[C@@H]2NC(=O)[C@H](CC(=O)O)NC(=O)[C@H](Cc3ccc(C(=O)O)cc3)NC(=O)[C@H](Cc3ccncc3)NC(=O)CSC[C@@H](C(=O)NCCOCCOCC(=O)NCCOCCOCC(=O)NCCCCCCCCCCC(=O)O)NC(=O)[C@H](Cc3cnc[nH]3)NC(=O)[C@H](C(C)(C)O)NC(=O)[C@H](CC3CCCCC3)NC(=O)[C@H](CCN)NC(=O)[C@@H](CC(C)C)NC(=O)[C@H](CCCN)NC(=O)[C@H](Cc3ccc(OCC(=O)O)cc3)NC(=O)[C@H](Cc3ccc(-c4ccccc4)cc3)NC(=O)[C@H](Cc3ccc(OCC(=O)O)cc3)NC2=O)c1 [Compound 3735] ({CH2CO}-[4Pal][Phe(4-COOH)]D[Phe(3-Me)]Y(Carboxymethyl)[Bip]Y(Carboxymethyl)[Orn][dL][Dab][Cha][Val(3-OH)]HC[AEEA][AEEA][Aun]-OH; thioether N-14)
